# In the Deep4Chem optical property database:
# Values joined by “and” are separate entries in the source; they are usually repeats but may differ in a detail not shown here. Equal entries are not always repeated.
# Experiment: photoluminescence quantum yield (fraction); solvent given as SMILES
compound,measurement,setting,value
C(#Cc1cccs1)C(C#Cc1cccs1)=Cc1ccc(C=C(C#Cc2cccs2)C#Cc2cccs2)cc1,photoluminescence quantum yield,in ClC(Cl)Cl,0.32 and 0.25
C(/C=C/c1ccc(-n2c3ccccc3c3ccccc32)cc1)=C\c1ccncc1,photoluminescence quantum yield,in C1COCCO1,0.55
same,photoluminescence quantum yield,in CC#N,0.32
same,photoluminescence quantum yield,in CCCCCCC,0.78
same,photoluminescence quantum yield,in CO,0.02
CCN(CC)c1ccc(-c2ccc(-c3nc4ccccc4c(=O)[nH]3)s2)cc1,photoluminescence quantum yield,in CC#N,0.28
same,photoluminescence quantum yield,in Cc1ccccc1,0.71
CCN(CC)c1ccc2c(c1)oc(=O)c1c(C)nc3c(c(C)nn3-c3ccccc3)c12,photoluminescence quantum yield,in C1CCCCC1,0.852
same,photoluminescence quantum yield,in CCOC(C)=O,0.733
same,photoluminescence quantum yield,in CN(C)C=O,0.562
same,photoluminescence quantum yield,in CO,0.428
same,photoluminescence quantum yield,in ClCCl,0.827
CCCCc1cc(CCCC)c2ccc3c(CCCC)cc(CCCC)c4ccc1c2c43,photoluminescence quantum yield,in CCCCCC,0.55
same,photoluminescence quantum yield,in CO,0.67
same,photoluminescence quantum yield,in ClCCl,0.61
O=c1cc2cc(O)c3cccc4ccc(o1)c2c43,photoluminescence quantum yield,in CC1CCCO1,0.35
CCCCCCc1cc2c(s1)-c1sc(CCCCCC)cc1P(c1ccccc1)(c1ccccc1)=[O+][B-]2(c1c(C)cc(C)cc1C)c1c(C)cc(C)cc1C,photoluminescence quantum yield,in C1CCOC1,0.06
O=C1c2cccc3c(NCc4ccccn4)c4ccccc4c(c23)C(=O)N1Cc1ccccn1,photoluminescence quantum yield,in C1CCOC1,0.07
same,photoluminescence quantum yield,in CCCCCC,0.04
same,photoluminescence quantum yield,in CCO,0.07
same,photoluminescence quantum yield,in Cc1ccccc1,0.08
same,photoluminescence quantum yield,in ClCCl,0.1
CC(C)(C)c1ccc(C2=c3c(c4ccc(C(C)(C)C)cc4c4cc(C(C)(C)C)ccc34)=[N+]3C2=C(c2ccccc2)c2c(-c4ccc(C(C)(C)C)cc4)c4c5ccc(C(C)(C)C)cc5c5cc(C(C)(C)C)ccc5c4n2[B-]3(F)F)cc1,photoluminescence quantum yield,in C1CCCCC1,0.44
same,photoluminescence quantum yield,in C1CCOC1,0.45
same,photoluminescence quantum yield,in CC#N,0.27
same,photoluminescence quantum yield,in Cc1ccccc1,0.46
same,photoluminescence quantum yield,in ClCCl,0.45
CCOC(=O)c1sc2nc(C)c(CC)c(C#N)c2c1N,photoluminescence quantum yield,in c1ccccc1,0.054
Oc1ccc2ccc(C3(O)C4CC5CC(C4)CC3C5)cc2c1 (centres undefined),photoluminescence quantum yield,in CC#N,0.3
C(=C\c1cnccn1)/c1ccc2nccnc2c1,photoluminescence quantum yield,in CCCCCC,0.001
same,photoluminescence quantum yield,in CCO,0.09
same,photoluminescence quantum yield,in CO,0.12
same,photoluminescence quantum yield,in ClCCl,0.04
same,photoluminescence quantum yield,in c1ccccc1,0.02
N#Cc1c(-n2nnc3c2CCC2C(CC3)[C@@H]2CO)n([C@H]2C[C@H](O)[C@@H](CO)O2)c2ncnc(N)c12 (some centres undefined),photoluminescence quantum yield,in CO,0.014
COc1ccc(/C=C/C2=[O+][B-](F)(F)OC(/C=C/c3ccc(OC)cc3)=C2c2ccc(OC)cc2)cc1,photoluminescence quantum yield,in ClCCl,0.39
C=CCOc1ccc(-c2nc3cc(C(NC(=O)OC(C)(C)C)C(=O)OC)ccc3o2)cc1 (centres undefined),photoluminescence quantum yield,in CC1CCCCC1,0.84
same,photoluminescence quantum yield,in CC#N,0.56
same,photoluminescence quantum yield,in CO,0.79
Cc1ccccc1C1=C2C=CC(=[N+](C)C)C=C2[Si](C)(C)c2cc(N(C)C)ccc21,photoluminescence quantum yield,in O,0.31
CC1=CC(C)=[N+]2C1=C(c1ccc(-c3ccc(OS(=O)(=O)c4ccc([N+](=O)[O-])cc4[N+](=O)[O-])cc3)s1)c1c(C)cc(C)n1[B-]2(F)F,photoluminescence quantum yield,in Cc1ccccc1,0.066
c1ccc(C2=C(c3ccccn3)[Si](c3ccccc3)(c3ccccc3)c3ccccc32)cc1,photoluminescence quantum yield,in ClCCl,0.004
COc1ccc(-c2cc3c(cc2OC)-c2c(c4c(c5c2-c2cc(OC)c(-c6ccc(OC)cc6)cc2C5)C(=O)N(CCC(C)C)C4=O)C3)cc1,photoluminescence quantum yield,in C1CCOC1,0.59
CN(CCO)c1ccc(/N=N/c2ccc([N+](=O)[O-])cc2)cc1,photoluminescence quantum yield,in CO,0.0028
same,photoluminescence quantum yield,in OCC(O)CO,0.0011
same,photoluminescence quantum yield,in OCCO,0.0014
same,photoluminescence quantum yield,in Oc1ccccc1,4.3e-05
CN(C)c1ccc(/C=C/C(=O)O)cc1,photoluminescence quantum yield,in C1CCOC1,0.0134
same,photoluminescence quantum yield,in CC#N,0.0205
same,photoluminescence quantum yield,in CCCCO,0.0071
same,photoluminescence quantum yield,in O,0.002
same,photoluminescence quantum yield,in c1ccccc1,0.0112
CC1=C2C=CC=[N+]2[B-](F)(F)n2cccc21,photoluminescence quantum yield,in CCCCCC,0.96
same,photoluminescence quantum yield,in CO,1
same,photoluminescence quantum yield,in ClCCl,0.88
Cc1ccc(/C=C/c2nc(-c3ccc([N+](=O)[O-])cc3)[nH]c2/C=C/c2ccc(C)cc2)cc1,photoluminescence quantum yield,in ClCCl,0
CCN(CC)c1ccc2ccc(=O)oc2c1,photoluminescence quantum yield,in CC(C)=O,0.55
same,photoluminescence quantum yield,in CCCCCC,0.85
same,photoluminescence quantum yield,in CCCCCCC,0.85
same,photoluminescence quantum yield,in CCCCO,0.47
same,photoluminescence quantum yield,in CCCO,0.52
same,photoluminescence quantum yield,in CCO,0.39
same,photoluminescence quantum yield,in CCOCC,0.8
same,photoluminescence quantum yield,in CN(C)C=O,0.56
same,photoluminescence quantum yield,in CO,0.27
same,photoluminescence quantum yield,in Cc1ccccc1,0.83
same,photoluminescence quantum yield,in ClC(Cl)Cl,0.62
same,photoluminescence quantum yield,in ClCCl,0.9
same,photoluminescence quantum yield,in OCCO,0.25
same,photoluminescence quantum yield,in c1ccccc1,0.83
Cc1ccc(-n2c3ccc(-c4ccc(-c5nc6ccccc6n5-c5ccccc5)cc4)cc3c3cc(-c4ccc(-c5nc6ccccc6n5-c5ccccc5)cc4)ccc32)cc1,photoluminescence quantum yield,in Cc1ccccc1,0.65
Fc1ccc(C2=C(c3ccc(F)cc3)c3cccc4c3c(cc3nc5ccccc5nc34)O2)cc1,photoluminescence quantum yield,in ClCCl,0.35
Cc1cc(-c2nnc(-c3ccccc3)o2)ccc1-n1c2ccccc2c2ccccc21,photoluminescence quantum yield,in Cc1ccccc1,0.56
CC1(C)C(/C=C/C2=C(Cl)C(=C/C=C3/N(CCCS(=O)(=O)[O-])c4ccccc4C3(C)C)/CCC2)=[N+](CCCS(=O)(=O)[O-])c2ccccc21,photoluminescence quantum yield,in CO,0.05
CCCCNC(=O)c1sc(-c2ccc(-c3cc(-c4ccc(C(C)(C)C)cc4)c(C(=O)NCCCC)s3)s2)cc1-c1ccc(C(C)(C)C)cc1,photoluminescence quantum yield,in ClCCl,0.32
CN(C)c1ccc(C2=Cc3cccc[n+]3[B-](F)(F)O2)cc1,photoluminescence quantum yield,in C1CCOC1,0.684
same,photoluminescence quantum yield,in C1COCCO1,0.794
same,photoluminescence quantum yield,in CC1CCCCC1,0.519
same,photoluminescence quantum yield,in CC#N,0.517
same,photoluminescence quantum yield,in CCOC(C)=O,0.699
same,photoluminescence quantum yield,in CCOCC,0.868
same,photoluminescence quantum yield,in CN(C)C=O,0.382
same,photoluminescence quantum yield,in CO,0.454
same,photoluminescence quantum yield,in COC(C)=O,0.569
same,photoluminescence quantum yield,in ClC(Cl)Cl,0.705
N#Cc1cccc(C#N)c1-c1ccc(N2c3ccccc3C3(c4ccccc42)c2ccccc2N(c2ccc(-c4c(C#N)cccc4C#N)cc2)c2ccccc23)cc1,photoluminescence quantum yield,in O=P(c1ccccc1)(c1ccccc1)c1ccccc1Oc1ccccc1P(=O)(c1ccccc1)c1ccccc1,0.65
CCCCCCOc1cc(C=C2C(=O)c3ccccc3C2=O)c(OCCCCCC)cc1C=C1C(=O)c2ccccc2C1=O,photoluminescence quantum yield,in ClCCl,0.697
c1ccc(B2Nc3cc4c(cc3-c3occc32)NB(c2ccccc2)c2ccoc2-4)cc1,photoluminescence quantum yield,in ClCCl,0.26
COc1cc2c(cc1-c1ccc(F)cc1)Cc1c3c(c4c(c1-2)-c1cc(OC)c(-c2ccc(F)cc2)cc1C4)C(=O)N(CCC(C)C)C3=O,photoluminescence quantum yield,in C1CCOC1,0.52
Cc1cc(C)c(B(c2ccccc2N(c2ccccc2)c2ccccc2)c2c(C)cc(C)cc2C)c(C)c1,photoluminescence quantum yield,in Cc1ccccc1,0.73
CC1(C)c2ccccc2N(c2ccc(-c3ccc4c(c3)C(=O)c3ccc(-c5ccc(N6c7ccccc7C(C)(C)c7ccccc76)cc5)cc3C4=O)cc2)c2ccccc21,photoluminescence quantum yield,in Cc1ccccc1,0.17
same,photoluminescence quantum yield,in c1ccc2c(c1)c1ccccc1n2-c1ccc(-c2ccc(-n3c4ccccc4c4ccccc43)cc2)cc1,0.5
CCCCCCCCCCCCCCCCOc1cc(C#Cc2ccc3ccccc3c2)c(OCCCCCCCCCCCCCCCC)cc1C#Cc1ccc(C=C(C#N)C#N)cc1,photoluminescence quantum yield,in Brc1ccccc1,0.43
same,photoluminescence quantum yield,in C1CCCCC1,0.9
same,photoluminescence quantum yield,in C1CCOC1,0.5
same,photoluminescence quantum yield,in C1COCCO1,0.5
same,photoluminescence quantum yield,in CCCCCC,0.87
same,photoluminescence quantum yield,in CCCCCCCCO,0.35
same,photoluminescence quantum yield,in CCCCOCCCC,0.81
same,photoluminescence quantum yield,in CCOC(C)=O,0.23
same,photoluminescence quantum yield,in CCOCC,0.79
same,photoluminescence quantum yield,in Cc1ccccc1,0.82
same,photoluminescence quantum yield,in ClC(Cl)(Cl)Cl,0.81
same,photoluminescence quantum yield,in ClC(Cl)Cl,0.78
same,photoluminescence quantum yield,in ClCCl,0.19
COc1cc2c(cc1-c1ccc(C#N)cc1)Cc1c3c(c4c(c1-2)-c1cc(OC)c(-c2ccc(C#N)cc2)cc1C4)C(=O)N(CCC(C)C)C3=O,photoluminescence quantum yield,in C1CCOC1,0.51
CN1C(=CC2=C([O-])C(=CC3=[N+](C)c4ccc(Cl)cc4C3(C)C)C2=O)C(C)(C)c2cc(Cl)ccc21,photoluminescence quantum yield,in CC(C)O,0.1
Clc1ccc(/C=C/c2cnc3ccccc3n2)cc1,photoluminescence quantum yield,in ClCCl,0.01
CC[N+]1(CC)CN2C(=N1)C(C(=O)O)=Cc1c2ccc2ccccc12,photoluminescence quantum yield,in O,0.711
O=c1oc2ccccc2cc1-c1cc2ccccc2o1,photoluminescence quantum yield,in CC#N,0.75
same,photoluminescence quantum yield,in CCOC(C)=O,0.79
same,photoluminescence quantum yield,in CS(C)=O,0.99
same,photoluminescence quantum yield,in Cc1ccccc1,0.88
same,photoluminescence quantum yield,in O,0.15
CCCN1C(=O)C(=CC=CC=C2Oc3ccccc3N2CCCS(=O)(=O)[O-])C(=O)N(CCC)C1=S,photoluminescence quantum yield,in CC(C)=O,0.41
same,photoluminescence quantum yield,in CCCCO,0.37
same,photoluminescence quantum yield,in CCO,0.25
same,photoluminescence quantum yield,in CO,0.17
same,photoluminescence quantum yield,in ClC(Cl)Cl,0.32
same,photoluminescence quantum yield,in O,0.04
Cc1ccc(N(C)C)cc1C1=C2C=CC(=[N+](C)C)C=C2[Si](C)(C)c2cc(N(C)C)ccc21,photoluminescence quantum yield,in O,0.001
CN(C)c1ccc(N(C)C)cc1,photoluminescence quantum yield,in C1CCCCC1,0.21
c1ccc(-c2nc3ccccc3nc2-c2ccc(-n3c4ccccc4c4ccccc43)cc2)cc1,photoluminescence quantum yield,in Cc1ccccc1,0.32
CC1(C)C(/C=C/C2=C(Cl)C(=C/C=C3/N(CCCCCC(=O)O)c4ccccc4C3(C)C)/CCC2)=[N+](CCCCCC(=O)O)c2ccccc21,photoluminescence quantum yield,in CCO,0.119
COc1ccc(C2=C(c3ccc(OC)cc3)C(C)(C)c3ccc4ccccc4c32)cc1,photoluminescence quantum yield,in C1CCCCC1,0.11
Cc1cc(C)c(B(c2c(C)cc(C)cc2C)N2c3ccccc3C(c3ccccc3)(c3ccccc3)c3ccccc32)c(C)c1,photoluminescence quantum yield,in C1CCCCC1,0.732
same,photoluminescence quantum yield,in Cc1ccccc1,0.974
same,photoluminescence quantum yield,in ClCCl,0.891
c1ccc(N(c2ccccc2)c2c3ccccc3cc3ccccc23)cc1,photoluminescence quantum yield,in Cc1ccccc1,0.92
